This experiment concerns the target T1, human cGAS (residues 161-522) (Homo sapiens, UniProt Q8N884).
T1 construct: Recombinantly expressed purified human cGAS (residues 161-522) was used at 25 nM; made in house
Description: Malachite Green assay to measure cGAS activity. Format: biochemical. To be noted: coupled enzymatic assay, phosphate detection by Malachite Green; 25 nM cGAS, 80 μM ATP, 80 μM GTP, 100 nM ISD, 4 hour at RT. The method, then:
Malachite Green Assay to Measure cGAS Activity
Compounds were tested for cGAS inhibition in a coupled enzymatic assay based on Phosphate detection by Malachite Green. Final assay conditions were 20 mM TRIS pH 7.5 (Applichem), 5 mM MgCl2 (Sigma) and 0.01% BSA (Sigma) supplemented with 80 μM ATP (Sigma), 80 μM GTP (Sigma) and 100 nM Interferon Stimulating DNA (ISD) (Microsynth). Recombinantly expressed purified human cGAS (residues 161-522) was used at 25 nM.
All compounds were prepared as 10 mM stock solutions in DMSO and a 16 pt dilution series in DMSO with a dilution factor of 2.5 was prepared. 1 μL of DMSO dilution series was transferred to 32.3 μL reaction buffer, mixed by pipetting up/down, spun for 1 minute at 3000 rpm and was visually inspected for precipitation. 5 μL of 3-fold enzyme stock solution were transferred to an empty 384-well Black/Clear Flat Bottom Polystyrene NBS (Corning) rows 3-24. Rows 1-2 were filled with assay buffer. Plates were spun 10 seconds at 1000 rpm (164×g). 5 μL of compound intermediate dilution was added and mixed by pipetting up/down to rows 3-24. Rows 1-2 were filled with 3.1% DMSO assay buffer. Plates were spun 10 seconds at 1000 rpm (164×g). 5 μL 3-fold Nucleotide/DNA mix was added to all wells to start the reaction. Plates were spun 10 seconds at 1000 rpm (164×g) and incubated for 4 hour at room temperature (RT) in the dark. 5 μL 4 U/mL PPase (Sigma) were added to all wells. Plates spun 10 seconds at 1000 rpm (164×g). 10 μL BioMol green Solution (Enzo Life Sciences) was added to all wells. Plates spun 10 seconds at 1000 rpm (164×g) and incubated 30 minutes at RT in the dark. Absorbance data was collected 620 nm on an EnVision Multilable Reader (Perkin Elmer) and the following measurement settings were used: excitation filter photometric was 620 nm; excitation from the top; measurement height was 1 mm; number of flashes was 30; number of flashes integrated was 1.
All plates are checked for abnormalities and outliers in the Blank Control (no protein, row 1) and the Neutral Control (no compound, row 2) are excluded using the 3*SD rule. Data was normalized to 0 and 100% by Blank and Neutral Control and each curve was fitted and judged using the 4 parameter logistic equation to determine the IC50 for cGAS inhibition.
Table 1 provides IC50 values (μM) for cGAS inhibition obtained for particular examples of the present invention as measured by the above-described assay.
T1 sequence (Q8N884 161-522): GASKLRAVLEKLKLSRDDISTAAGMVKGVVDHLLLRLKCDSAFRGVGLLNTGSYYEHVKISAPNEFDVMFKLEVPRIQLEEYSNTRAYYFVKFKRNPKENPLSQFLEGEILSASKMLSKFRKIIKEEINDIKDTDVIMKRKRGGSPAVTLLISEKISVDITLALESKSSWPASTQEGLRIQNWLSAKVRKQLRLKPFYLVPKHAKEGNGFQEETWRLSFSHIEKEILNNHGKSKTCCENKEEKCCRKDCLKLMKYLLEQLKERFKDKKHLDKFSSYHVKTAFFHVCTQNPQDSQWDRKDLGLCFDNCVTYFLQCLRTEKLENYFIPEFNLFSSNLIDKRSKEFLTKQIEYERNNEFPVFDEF
With `Cc1ccc(-c2cc(C(=O)O)c3c(c2)ncn3-c2ccccc2)c(Cl)c1` [Example 1, 5-(2-Chloro-4-methylphenyl)-1-phenyl-1H-benzo[d]imidazole-7-carboxylic acid], the IC50 (usually the concentration at which inhibition is half-maximal) was found to be 1120 nM. Under `CC(=O)NCCCn1cnc2cc(-c3ccc(C)cc3Cl)cc(C(=O)O)c21` [Example 2, 1-(3-Acetamidopropyl)-5-(2-chloro-4-methylphenyl)-1H-benzo[d]imidazole-7-carboxylic acid] stands 2340 nM; under `Cc1ccc(-c2cc(C(=O)O)c3c(c2)ncn3CCCNS(C)(=O)=O)c(Cl)c1` [Example 3, 5-(2-Chloro-4-methylphenyl)-1-(3-(methylsulfonamido)propyl)-1H-benzo[d]imidazole-7-carboxylic acid], 1340 nM; under `Cc1ccc(-c2cc(C(=O)O)c3c(c2)ncn3Cc2cccc(Cl)c2)c(Cl)c1` [Example 4, 5-(2-Chloro-4-methylphenyl)-1-(3-chlorobenzyl)-1H-benzo[d]imidazole-7-carboxylic acid], 2590 nM. In the case of `Cc1ccc(-c2cc(C(=O)O)c3c(c2)ncn3Cc2ccncc2)c(Cl)c1` [Example 5, 5-(2-Chloro-4-methylphenyl)-1-(pyridin-4-ylmethyl)-1H-benzo[d]imidazole-7-carboxylic acid] it was 870 nM; in that of `Cc1ccc(-c2cc(C(=O)O)c3c(c2)ncn3Cc2cccnc2)c(Cl)c1` [Example 6, 5-(2-Chloro-4-methylphenyl)-1-(pyridin-3-ylmethyl)-1H-benzo[d]imidazole-7-carboxylic acid], 2070 nM. Compound `Cc1ccc(-c2cc(C(=O)O)c3c(c2)ncn3Cc2ccccn2)c(Cl)c1` [Example 7, 6-(2-Chloro-4-methylphenyl)-3-(pyridin-2-ylmethyl)benzimidazole-4-carboxylic acid] had an IC50 of 1760 nM. On to `Cc1ccc(-c2cc(C(=O)O)c3c(c2)ncn3CCN(C)C)c(Cl)c1` [Example 8, 5-(2-Chloro-4-methylphenyl)-1-(2-(dimethylamino)ethyl)-1H-benzo[d]imidazole-7-carboxylic acid], for which the IC50 came out at 2020 nM. Under `COCCn1cnc2cc(-c3ccc(C)cc3Cl)cc(C(=O)O)c21` [Example 9, 5-(2-Chloro-4-methylphenyl)-1-(2-methoxyethyl)-1H-benzo[d]imidazole-7-carboxylic acid] stands 3040 nM. For `Cc1ccc(-c2cc(C(=O)O)c3c(c2)ncn3C2CC2)c(Cl)c1` [Example 10, 5-(2-Chloro-4-methylphenyl)-1-cyclopropyl-1H-benzo[d]imidazole-7-carboxylic acid], the IC50 stood at 4790 nM.

Turning to `CCn1cnc2cc(-c3cc(F)c(C)cc3Cl)cc(C(=O)O)c21` [Example 11, 5-(2-Chloro-5-fluoro-4-methylphenyl)-1-ethyl-1H-benzo[d]imidazole-7-carboxylic acid], the IC50 worked out at 1930 nM. Compared with the last compound, the IC50 is about 2.5-fold lower.

`CCn1cnc2cc(-c3ccc(C)cc3Cl)cc(C(=O)O)c21` [Example 12, 5-(2-Chloro-4-methylphenyl)-1-ethyl-1H-benzo[d]imidazole-7-carboxylic acid] gave an IC50 of 2810 nM. The compound `Cc1ccc(-c2cc(C(=O)O)c3c(c2)ncn3CC(F)(F)F)c(Cl)c1` [Example 13, 5-(2-Chloro-4-methylphenyl)-1-(2,2,2-trifluoroethyl)-1H-benzo[d]imidazole-7-carboxylic acid] came in with an IC50 of 3290 nM. The IC50 values of the last two compounds are within 1.5-fold of each other.

In turn, `Cc1ccc(-c2cc(C(=O)O)c3c(c2)ncn3CCc2ccccc2)c(Cl)c1` [Example 14, 5-(2-Chloro-4-methylphenyl)-1-phenethyl-1H-benzo[d]imidazole-7-carboxylic acid] yielded an IC50 of 1860 nM.

`Cc1ccc(-c2cc(C(=O)O)c3c(c2)ncn3Cc2ccccc2)c(Cl)c1` [Example 15, 1-Benzyl-5-(2-chloro-4-methylphenyl)-1H-benzo[d]imidazole-7-carboxylic acid] had a 50% inhibitory concentration (IC50) of 2410 nM.

The record behind these values is patent US20230227411A1, “Benzimidazole Derivatives” (Hoffmann-La Roche Inc., priority 2020, published 2023).
